Counter-ions that a name gives are not always drawn.
Experiments:
Test in all cases: viability inhibition at highest dose (% inhibition); higher = more growth inhibition
T-47D = conditions: 72 h
In short: (§1)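 Drug sensitivity score, relative IC50 as the curve midpoint, and top-dose inhibition were derived from logistic dose–response fits in the Breeze pipeline. These fits used CellTiter-Glo viability, read on a PHERAstar and normalised to vehicle-only and positive controls. Breast cancer cell lines and resistant derivatives had been incubated for 72 h at 37 °C in 384-well plates holding library drugs at five concentrations spanning a 10 000-fold range. Resistant lines were grown in medium with 1 μM of the selecting drug.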

MCF-7 = conditions: 72 h
In short: as §1

ZR-75-1 Tam1 = conditions: 4-OH-tamoxifen in medium 1 µM; 72 h
In short: as §1

BT-474 Tam2 = conditions: 4-OH-tamoxifen in medium 1 µM; 72 h
In short: as §1

ZR-75-1 = conditions: 72 h
In short: as §1

ZR-75-1 Tam2 = conditions: 4-OH-tamoxifen in medium 1 µM; 72 h
In short: as §1

MCF-7 Tam1 = conditions: 4-OH-tamoxifen in medium 1 µM; 72 h
In short: as §1

BT-474 = conditions: 72 h
In short: as §1

BT-474 Tam1 = conditions: 4-OH-tamoxifen in medium 1 µM; 72 h
In short: as §1

T-47D Tam2 = conditions: 4-OH-tamoxifen in medium 1 µM; 72 h
In short: as §1

T-47D Tam1 = conditions: 4-OH-tamoxifen in medium 1 µM; 72 h
In short: as §1

SMILES | viability inhibition at highest dose (T-47D; 4-OH-tamoxifen in medium 0 µM) | viability inhibition at highest dose (T-47D; 4-OH-tamoxifen in medium 1 µM) | viability inhibition at highest dose (MCF-7; 4-OH-tamoxifen in medium 0 µM) | viability inhibition at highest dose (MCF-7; 4-OH-tamoxifen in medium 1 µM) | viability inhibition at highest dose (ZR-75-1 Tam1) | viability inhibition at highest dose (BT-474 Tam2) | viability inhibition at highest dose (ZR-75-1; 4-OH-tamoxifen in medium 0 µM) | viability inhibition at highest dose (ZR-75-1; 4-OH-tamoxifen in medium 1 µM) | viability inhibition at highest dose (ZR-75-1 Tam2) | viability inhibition at highest dose (MCF-7 Tam1) | viability inhibition at highest dose (BT-474; 4-OH-tamoxifen in medium 0 µM) | viability inhibition at highest dose (BT-474; 4-OH-tamoxifen in medium 1 µM) | viability inhibition at highest dose (BT-474 Tam1) | viability inhibition at highest dose (T-47D Tam2) | viability inhibition at highest dose (T-47D Tam1)
NC(=O)c1cccc2cn(-c3ccc([C@@H]4CCCNC4)cc3)nc12 [MK-4827] (drug 10000 nM) | 20.9 | -1.38 | 12.1 | 16.4 | 2.04 | 21.1 | 11.6 | 8.9 | 9.71 | -3.14 | -13.3 | -7.59 | 42.3 | 14.2 | 1.65
COc1cc([C@@H]2c3cc4c(cc3[C@@H](O[C@@H]3O[C@@H]5CO[C@@H](c6cccs6)O[C@H]5[C@H](O)[C@H]3O)[C@H]3COC(=O)[C@H]23)OCO4)cc(OC)c1O [Teniposide] (drug 10000 nM) | 54.1 | 36.5 | 55.1 | 28 | 37 | 13.2 | 43.9 | 35.7 | 42.4 | 18 | 54.2 | 87.3 | 62.6 | 46.3 | 78.3
C[C@]12O[C@H](C[C@]1(O)CO)n1c3ccccc3c3c4c(c5c6ccccc6n2c5c31)CNC4=O [Lestaurtinib] (drug 1000 nM) | -13.3 | 19.6 | 21.4 | 9.26 | 1.32 | 24.5 | 8.87 | 8.3 | 12.4 | 21.2 | 10.1 | 42.1 | 46.3 | -5.08 | -16.2
CCC1(c2ccc(N)cc2)CCC(=O)NC1=O (stereo not given) [Aminoglutethimide] (drug 10000 nM) | -3.76 | 5.9 | -3.88 | 8.64 | 9.59 | -1.52 | 6.41 | 10.3 | 8.94 | 6.51 | -3.67 | 20 | 12.8 | 4.12 | 4.05
Cc1ccc(-c2cc(C(F)(F)F)nn2-c2ccc(S(N)(=O)=O)cc2)cc1 [Celecoxib] (drug 10000 nM) | -3.21 | 5.57 | 15.2 | 5.23 | 4.71 | 4.93 | -12 | 11.6 | -10.3 | 4.31 | -0.849 | 1.11 | 12.6 | 18.3 | 2.27
CC[C@H](CO)Nc1nc(NCc2ccccc2)c2ncn(C(C)C)c2n1 [Seliciclib (Roscovitine)] (drug 10000 nM) | -4.76 | -17.1 | 29 | 17.2 | -5.94 | 3.77 | -12.8 | -9.91 | -4.53 | 13.8 | -9.62 | -8.52 | -2.39 | 23.6 | 24.8
CC[C@@H]1C(=O)N(C)c2cnc(Nc3ccc(C(=O)NC4CCN(C)CC4)cc3OC)nc2N1C1CCCC1 [BI 2536] (drug 1000 nM) | 29.2 | 19.9 | 39 | 29.9 | 26.8 | 11.8 | 12.7 | 26.7 | 21.6 | 7.18 | 26 | 48.3 | 27.9 | 34 | 30.3
NC1(c2ccc(-c3nc4ccn5c(=O)[nH]nc5c4cc3-c3ccccc3)cc2)CCC1 [MK-2206] (drug 1000 nM) | 52.4 | 36.6 | 35.1 | 44.8 | 60.8 | 21.9 | 57.1 | 51.6 | 63.1 | 29.1 | 27.6 | 50.8 | 47 | 49.9 | 44.5
O=NN(CCCl)C(=O)NC1CCCCC1 [Lomustine] (drug 10000 nM) | -10.8 | -1.44 | 12.6 | 13.1 | -0.686 | -2.72 | -11.7 | -5.51 | -14.9 | -10.9 | -2.85 | 4.76 | 0.268 | 7.26 | -5.12
O=C(c1ccc(OCCN2CCCCC2)cc1)c1c(-c2ccc(O)cc2)sc2cc(O)ccc12 [Raloxifene  HCl] (drug 10000 nM) | 11.3 | 9.48 | 33.2 | 33.8 | 9.11 | 34.8 | 11.9 | 13.3 | 2.72 | 21.5 | 22.8 | 54 | 44.3 | 25.9 | 12.6
C[C@]12C=CC(=O)C=C1CC[C@@H]1[C@@H]2C(=O)C[C@@]2(C)[C@H]1CC[C@]2(O)C(=O)CO [Prednisone] (drug 10000 nM) | -2.36 | -14.5 | 4.17 | -2.57 | -0.823 | -4.01 | -12.2 | -9.15 | 5.99 | -6.7 | -5.13 | -15.9 | 0.805 | 6.96 | 0.12
CN1CCC(COc2cnc(-c3cccc(Cn4nc(-c5cccc(C#N)c5)ccc4=O)c3)nc2)CC1 (drug 1000 nM) | -10.4 | -5.78 | -4.34 | 13.2 | 0.277 | 8.15 | -2.72 | 2.17 | -3.94 | 7.93 | 2.72 | -6.04 | 4.43 | -1.11 | 57.5
CCCCCOC(=O)Nc1nc(=O)n([C@@H]2O[C@H](C)[C@@H](O)[C@H]2O)cc1F [Capecitabine] (drug 10000 nM) | -17.6 | -17 | -4.69 | -0.939 | 11.1 | -6.54 | 24.8 | 0.654 | 7.55 | -12 | -9.89 | -7.23 | 0.103 | 2.81 | 1.61
C[C@]12CC[C@H](O)CC1=CC[C@@H]1[C@@H]2CC[C@]2(C)C(c3cccnc3)=CC[C@@H]12 [Abiraterone (CB-7598)] (drug 5000 nM) | -18.4 | -16.6 | -13.6 | -10.3 | -0.517 | -1 | -6.86 | -7.24 | -3.39 | -8.38 | -6.23 | -14.7 | 6.31 | -1.44 | -5.53
CS(=O)(=O)N1CCN(Cc2cc3nc(-c4cccc5[nH]ncc45)nc(N4CCOCC4)c3s2)CC1 [Pictilisib (GDC-0941)] (drug 10000 nM) | 68.5 | 76.6 | 76.8 | 81.6 | 76.9 | 82.5 | 64.3 | 60.7 | 76.1 | 64.4 | 63.6 | 90.6 | 86.1 | 67.4 | 70.6
Cn1c(=O)n(-c2ccc(C(C)(C)C#N)cc2)c2c3cc(-c4cnc5ccccc5c4)ccc3ncc21 [Dactolisib (NVP-BEZ235)] (drug 1000 nM) | 54.9 | 69.7 | 67.7 | 45 | 49.4 | 29.2 | 51 | 41.8 | 57 | 32.4 | 27.6 | 39.4 | 40.8 | 29.7 | 49.1
Cc1c(CN2CCN(C(=O)[C@H](C)O)CC2)sc2c(N3CCOCC3)nc(-c3cnc(N)nc3)nc12 [GDC-0980] (drug 10000 nM) | 73.8 | 72.1 | 74 | 73.4 | 66.6 | 84.3 | 64.4 | 56.3 | 72.1 | 52.1 | 60.1 | 86.3 | 87.4 | 64 | 67.1
CC(C)(C#N)c1cc(Cn2cncn2)cc(C(C)(C)C#N)c1 [Anastrozole] (drug 10000 nM) | -9.21 | -3.66 | -4.15 | -2.23 | -5.43 | -3.02 | -9.38 | -3.76 | -10.2 | -5.71 | -8.01 | -8.68 | -0.566 | 2.94 | -5.37
CCN(CC)CCCC(C)Nc1ccnc2cc(Cl)ccc12 (stereo not given) [Chloroquine] (drug 990000 nM) | -0.514 | -3.72 | -2.81 | 0.449 | 0.712 | 7.83 | -2.67 | -3.36 | 6.98 | -1.25 | -6.4 | -13.3 | 19 | -12.2 | 3.21
O=C1CN2Cc3c(ccc(Cl)c3Cl)N=C2N1 [Anagrelide] (drug 10000 nM) | -25.6 | -12.9 | -21.2 | 2.74 | 0.528 | 3.44 | -12.6 | -4.05 | -5.88 | -9.28 | -9.3 | -22.2 | 2.18 | -2.05 | 8.7
COc1ccc(-c2ccc3c(N4CCOC[C@@H]4C)nc(N4CCOC[C@@H]4C)nc3n2)cc1CO [AZD8055] (drug 10000 nM) | 61 | 55.9 | 72.4 | 56.5 | 57.3 | 56.1 | 60 | 50.2 | 61 | 34.5 | 43.2 | 77.2 | 80.1 | 58.3 | 54.4
O=C(CCCCCCC(=O)Nc1ccccc1)NO [Vorinostat] (drug 10000 nM) | 87.5 | 88.9 | 83.5 | 80.9 | 38.9 | 86.8 | 37.5 | 32.9 | 37.8 | 23.1 | 76.5 | 92.9 | 91.2 | 41.9 | 58.5

— the supplement of paper PMC4932681
